From US20250382583A1, “ENHANCED METHODS FOR INDUCING AND MAINTAINING NAIVE HUMAN PLURIPOTENT STEM CELLS” (Washington University, priority 2021, published 2025)

Key:
Assay type in all cases: cell-based, human
[1] = tested on: WIBR3 OCT4-ΔPE-GFP+-naïve hESCs; test: Extended maintenance assay, OCT4-ΔPE-GFP reporter activity (imaging, qRT-PCR); conditions: for activity in maintaining OCT4-ΔPE-GFP reporter activity after passaging: 2.5 and 5 μM, two passages
Experimental: (§1) Defining alternative naïve maintenance media: To define the activity of selected hit compounds during extended naïve culture, naïve hESCs derived from the primed state and maintained in 5i/L/A were dissociated with Accutase (Thermo Fischer Scientific, A1110501) and 1.5×10^5 single cells were seeded in 5i/L/A media on MEF-coated plates. After 24 hours, 5i/L/A media were switched to experimental maintenance conditions to validate hits from the screen. After 4-6 days the cells were split in a 1:2 or 1:3 ratio and further maintained for 4-6 days before analysis by FACS, qRT-PCR, AP staining, and/or RNA-seq. 5i/L/A media in which the MEK inhibitor PD0325901 was replaced with 5 μM AZ628 are represented as alternative 5i/L/A (a5i/L/A). FXGY, AXGY, AXGYU, PXGY, and GXGY media were prepared in serum-free N2B27 media supplemented with 1 μM PD166866, 5 μM AZ628, 5 μM AZ628 and 1 μM UNC0638, 1 μM PD0325901, and 5 μM GDC-0994, respectively, together with 2 μM XAV939, 2 μM Gö6983, and 10 μM Y-27632. During these assays cells were fed with fresh media every second day and cultured in 5% O2, 5% CO2 at 37° C. Detailed information on conditions used for defining alternative naïve maintenance media can be found in Tables 1-6.
(§2) Quantitative reverse transcriptase PCR (qRT-PCR): Total RNA was isolated using the E.Z.N.A. total RNA kit I and cDNA synthesis was performed from total RNA using the high-capacity cDNA reverse transcription kit (Applied Biosystems, 4368814). qRT-PCR was performed using PowerUp SYBR Green Master Mix (Applied Biosystems, A25743) on the StepOnePlus Real-Time PCR System (Applied Biosystems). Gene expression was normalized to RPLP0 and analyzed using the ΔCt method. Error bars represent the standard deviation (SD) of the mean of technical replicates.
For this purpose, WIBR3 OCT4-ΔPE-GFP+-naïve hESCs that were generated in the absence of reprogramming transgenes were used using the 5i/L/A cocktail. […] Compounds were tested at two different concentrations (2.5 and 5 μM), and cells were maintained for two passages (FIG. 2A).

H9-naïve hESCs [2] = test: Extended maintenance assay, flow cytometry for naïve-specific CD75 and SUSD2; conditions: serum-free media supplemented with XGY, 2.5 μM compound
Experimental: as §1
Flow cytometry: Primed hESCs were single-cell dissociated using TrypLE Express, while Accutase was used for naïve hESCs. Cells were resuspended in fibroblast medium and centrifuged. Cell pellets were washed in 5 mL ice-cold PBS. The cells were then resuspended in […] fresh ice-cold FACS buffer (PBS supplemented with 5% FBS), and incubated with antibodies for 30 minutes on ice in the dark. The following antibodies were used: anti-SUSD2-PE (1:100), anti-CD75-eFluor 660 (1:100), anti-CD90-PE (1:100), anti-ITGA6-FITC (1:100) and EGFR-APC (1:25). Post-incubation the cells were washed once with 1 mL ice-cold PBS, resuspended in fresh 500 μl FACS buffer, and passed through a […] cell strainer into round bottom FACS tubes (Corning, #352235). Flow cytometry was performed using a BD LSRFortessa X-20 and the data were analyzed using the FlowJo software.

H9 hESCs = test: Primed-to-naïve reprogramming, colony morphology and colony numbers (imaging, AP staining); conditions: for morphological appearance of naïve hESCs on individual addition to PXGGY/A: 20 ng/ml LIF, 0.5 μM IM12 or 0.5 μM WH-04, P2
Experimental: (§3) […]: For primed-to-naïve resetting experiments, primed hESCs were dissociated into single cells using TrypLE Express (GIBCO, 12604), washed in fibroblast medium [DMEM (Millipore Sigma, #SLM-021-B) supplemented with 10% FBS (HyClone, SH30396.03, 1×GlutaMAX (GIBCO, 35050), and 1% penicillin-streptomycin (GIBCO, 15140)] and 2×10^5 single primed hESCs were seeded on mitomycin C-inactivated mouse embryonic fibroblast (MEF) feeder cells coated 6 well plates in 3-4 mL mTeSR1 supplemented with 10 μM Y-27632. Two days later, medium was switched to either 5i/L/A or experimental induction media and maintained for 10-12 days. Cells at this stage were considered at passage zero. Cells were then split in a 1:2 or 1:3 ratio every 4-6 days as single cells using Accutase (Thermo Fischer Scientific, A1110501). PXGGY media were prepared in serum-free N2B27 media supplemented with 1 μM PD0325901, 2 μM XAV939, 2 μM Gö6938, 2.5 μM GDC-0994, and 10 μM Y-27632. PXGGY/A media were prepared in PXGGY supplemented with 10 ng/ml Activin A. During these assays cells were fed with fresh media every second day and cultured in 5% O2, 5% CO2 at 37° C. Detailed information on the conditions used for defining alternative naïve induction media can be found in Tables 1-6.
(§4) Alkaline phosphatase (AP) staining: AP staining was performed following the manufacturer's instructions using the Leukocyte Alkaline Phosphatase Kit (Sigma, 86R, 1KT). For AP staining cells were seeded at equal density in 6-well plates and passaged in the same ratio for all conditions. Post-staining cells were allowed to dry overnight in the dark and scanned using HP Color Laser Jet Managed printer/scanner (MFP E67650).
(§5) Imaging: The imaging of H9 and WIBR3 hESCs was performed in live conditions within culture media. For WIBR3 MECP2-GFP/tdTomato hESCs the medium was aspirated, cell were washed twice with PBS, and imaged in 1 mL of PBS. All images were captured at 10× magnification on a Leica DMi8 microscope.
Example 1 establishes the PXGGY/A cocktail enables efficient primed-to-naïve reprogramming, homogenous induction of naïve-specific cell surface markers CD75 and SUSD2, and homogenous X-chromosome reactivation. […] To address this, the impact of ROCK inhibitor Y-27632 titration was first assessed when used continuously or transiently for only 24 hours at the time of passaging during primed-to-naïve reprogramming (FIG. 9A and FIG. 9B). […] The PXGGY/A composition from hereon will be denoted as PXGGY/A to specify transient use of ROCKi.
However, the morphology of naïve hESCs reprogrammed using this condition still appeared flat compared to the characteristic dome-shaped colony morphology associated with naïve pluripotency. […]

naïve hESCs = test: Colony morphology, proliferation and colony formation (phase contrast, AP staining) during naïve maintenance
Experimental: as §1, §4, §5

H9-naïve hESCs [3] = test: qRT-PCR for naïve-specific transcripts (KLF17, DNMT3L) during naïve maintenance
Experimental: as §1, §2

H9 primed hESCs = test: Primed-to-naïve resetting, flow cytometry for CD75 and SUSD2
Experimental: as §3, with “PXGGY/A media were prepared in PXGGY supplemented with 10 ng/ml Activin A. During these assays cells were fed with fresh media every second day and cultured in 5% O2, 5% CO2 at 37° C. Detailed information on the conditions used for defining alternative naïve induction media can be found in Tables 1-6.” left out
Flow cytometry: Primed hESCs were single-cell dissociated using TrypLE Express, while Accutase was used for naïve hESCs. […] Flow cytometry was performed using a BD LSRFortessa X-20 and the data were analyzed using the FlowJo software.

[4] = tested on: WIBR3 OCT4-ΔPE-GFP+naïve hESCs; test: High-throughput chemical screening in absence of 2i, OCT4-ΔPE-GFP reporter, high-content imaging; conditions: N2B27/Y
Experimental: High-throughput chemical screening: For high-throughput screening, WIBR3 OCT4-ΔPE-GFP+naïve hESCs generated with inducible KLF2 and NANOG transgenes were used, as described previously. These cells were maintained in 1 μM PD0325901, 1 µM CHIR99021, and 2 μg/ml DOX (Sigma) (2i/DOX). For compound screening in presence of 2i/Y, 3,000 OCT4-ΔPE-GFP+naïve hESCs were seeded per well in vitronectin-coated 384 well plates in serum-free N2B27 media supplemented with 1 μM PD0325901, 1 μM CHIR99021, and 10 μM Y-27632. The next day individual compounds from the Novartis Mechanism of Action (MoA) library were applied at two concentrations (2.5 μM and 5 μM) in duplicate using an Echo 550 Acoustic Liquid Handler (Labcyte), and compounds were refreshed on day 4. Images were analyzed on day 5 post-DOX withdrawal using a Yokogawa Cell Voyager 7000 High-Content Imaging System in confocal mode using a 10× dry (NA=0.45) objective lens using four fields per well that provided for full well coverage. While the screen was performed at two concentrations (2.5 μM and 5 μM), the lower concentration yielded few additional hits. Hit compounds were validated in 384 well plates across an 8-point concentration range in duplicates. […] Images were acquired using the Yokogawa Cell Voyager 7000 on day 7 and analyzed as described above. […]

Cc1ccc(NC(=O)c2cccc(C(C)(C)C#N)c2)cc1Nc1ccc2ncn(C)c(=O)c2c1 [AZ628]
activity in maintaining OCT4-ΔPE-GFP reporter activity after passaging ([1]; in Go/Y): showed activity | activity in maintaining OCT4-ΔPE-GFP reporter activity after passaging ([1]; in XAV/Y): showed activity | expansion of OCT4-ΔPE-GFP+ cells ([1]; in the presence of either XAV or Go): robust expansion | sustaining CD75/SUSD2-positive cells over multiple passages (H9-naïve hESCs [2]): robustly sustained

Cc1[nH]c2ccccc2c1C1=C(NCCc2ccc(F)cc2)C(=O)N(C)C1=O [IM12]
morphological appearance of naïve hESCs on individual addition to PXGGY/A (H9 hESCs): did not result in a major improvement

CC(C)(C)n1nc(-c2cccc3ccccc23)c2c(N)ncnc21 [Naphtol-PP1]
colony morphology upon addition to the AXGY cocktail (naïve hESCs; added to AXGY): enhanced dome-shaped colony morphology

COc1cc(OC)cc(-c2cc3cnc(N)nc3nc2NC(=O)NC(C)(C)C)c1 [PD166866]
activity in maintaining OCT4-ΔPE-GFP reporter activity after passaging ([1]; in the presence of ROCK inhibitor (Y) alone): showed activity | sustaining CD75/SUSD2-positive cells over multiple passages (H9-naïve hESCs [2]): robustly sustained | concentration effective to maintain expression of naïve-specific transcripts (titration) (H9-naïve hESCs [3]; in XAV/Gö/Y, KLF17 and DNMT3L): 1 µM | induction of CD75/SUSD2 double-positive cells in primed hESCs (H9 primed hESCs; in the presence of XGY and activin A, end of P1): heterogeneous induction

C/C(=N\NC(=N)N)c1cc(NC(=O)CCCCCCCCC(=O)Nc2cc(/C(C)=N/NC(=N)N)cc(/C(C)=N/NC(=N)N)c2)cc(/C(C)=N/NC(=N)N)c1 [Semapimod]
sustaining CD75/SUSD2-positive cells over multiple passages (H9-naïve hESCs [2]): some double-positive cells | proliferation of double-positive cells (naïve hESCs; serum-free media supplemented with XGY): very limited proliferation

COc1cc2c(NC3CCN(C(C)C)CC3)nc(C3CCCCC3)nc2cc1OCCCN1CCCC1 [UNC0638]
KLF17 expression upon addition to the AXGY cocktail (H9-naïve hESCs [3]; added to AXGY): further stimulated | colony proliferation compared to AXGY (naïve hESCs; added to AXGY): slightly reduced

COc1ccc(N(C(=O)Oc2c(C)cccc2C)c2ccnc(Nc3ccc(N4CCN(C)CC4)cc3)n2)c(OC)c1 [WH-4-023]
morphological appearance of naïve hESCs on individual addition to PXGGY/A (H9 hESCs): did not result in a major improvement

Oc1nc(-c2ccc(C(F)(F)F)cc2)nc2c1CSCC2 [XAV939]
colony size and OCT4-ΔPE-GFP signal compared to inhibition of MEK1 [4]: larger colonies but a slightly dimmer OCT4-ΔPE-GFP signal | increase in GFP activity (OCT4-ΔPE-GFP) ([4]; validation assays, absence of 2i): particularly strong effect

C[C@@H](N)[C@H]1CC[C@H](C(=O)Nc2ccncc2)CC1 [Y-27632]
CD75+/SUSD2+ cell proportion (H9 primed hESCs; transient application of 10 μM in PXGGY/A, P1): without any significant reduction | morphology of reprogrammed naïve hESCs (H9 hESCs; transient application (24 hours at passaging) of 10 μM in PXGGY/A): improves the morphology

LIF: leukemia inhibitory factor, recombinant human cytokine
morphological appearance of naïve hESCs on individual addition to PXGGY/A (H9 hESCs): did not result in a major improvement
